Results as given in US9802960B2 (MILLENNIUM PHARMACEUTICALS, INC., priority 2014, dated 2017).

Biological target: Human VPS34 (Homo sapiens (Human), UniProt Q8NEB9)
Experiment: Human VPS34 enzyme assay (Adapta TR-FRET)
Type: biochemical
Settings: compound concentration 1.11 μM; for inhibition at 1.11 µM: read-out: Percent Inhibition

Human VPS34, sequence (Q8NEB9 whole entry): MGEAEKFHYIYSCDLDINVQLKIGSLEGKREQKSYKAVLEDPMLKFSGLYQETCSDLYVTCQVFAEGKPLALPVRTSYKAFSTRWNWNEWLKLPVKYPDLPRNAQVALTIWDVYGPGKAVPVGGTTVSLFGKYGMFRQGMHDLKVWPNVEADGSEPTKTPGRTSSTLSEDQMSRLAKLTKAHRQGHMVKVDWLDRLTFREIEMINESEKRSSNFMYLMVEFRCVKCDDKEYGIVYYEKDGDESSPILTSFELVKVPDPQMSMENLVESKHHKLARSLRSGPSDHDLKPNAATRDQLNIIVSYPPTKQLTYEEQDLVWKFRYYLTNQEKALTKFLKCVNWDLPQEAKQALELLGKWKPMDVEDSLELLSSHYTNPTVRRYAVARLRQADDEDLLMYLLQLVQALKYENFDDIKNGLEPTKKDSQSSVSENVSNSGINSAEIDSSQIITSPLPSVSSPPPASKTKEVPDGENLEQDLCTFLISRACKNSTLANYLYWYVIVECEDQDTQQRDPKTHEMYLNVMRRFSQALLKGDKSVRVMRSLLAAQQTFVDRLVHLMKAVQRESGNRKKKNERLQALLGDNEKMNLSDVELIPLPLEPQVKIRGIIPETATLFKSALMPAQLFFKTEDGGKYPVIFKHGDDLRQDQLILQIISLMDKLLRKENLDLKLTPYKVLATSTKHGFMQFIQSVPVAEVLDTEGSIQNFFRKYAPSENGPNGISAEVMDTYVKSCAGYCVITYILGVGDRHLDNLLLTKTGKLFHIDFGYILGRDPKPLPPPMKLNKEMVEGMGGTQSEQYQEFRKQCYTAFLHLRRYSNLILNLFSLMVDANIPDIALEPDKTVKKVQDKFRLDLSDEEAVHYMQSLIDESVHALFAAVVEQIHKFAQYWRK

| inhibition at 1.11 µM [%] | Percent Inhibition [%] | Compound |
| --- | --- | --- |
| 96 |  | Cc1c(-c2ccnc(Nc3ccnc(C4CC4)n3)c2)cnc(Cl)c1NS(=O)(=O)N(C)C [Compound I-435, N′-{6-chloro-2′-[(2-cyclopropylpyrimidin-4-yl)amino]-4-methyl-3,4′-bipyridin-5-yl}-N,N-dimethylsulfuric diamide] |
| > 99 |  | CC(=O)Nc1cc(-c2cnc(Cl)c(NS(=O)(=O)c3cccc4ncccc34)c2C)ccn1 [Compound I-437, N-{6-chloro-4-methyl-5-[(quinolin-5-ylsulfonyl)amino]-3,4′-bipyridin-2′-yl}acetamide] |
| 69 |  | Cc1nccc(Nc2cc(-c3cnc(C)c(NC(=O)Nc4ccccc4)c3)ccn2)n1 [Compound I-439, 1-{6-methyl-2′-[(2-methylpyrimidin-4-yl)amino]-3,4′-bipyridin-5-yl}-3-phenylurea] |
| > 99 |  | Cc1ncc(-c2ccnc(NC(=O)C3CC3(F)F)c2)cc1NS(=O)(=O)c1ccc(Cl)cc1F (stereo not drawn) [Compound I-441, N-(5-{[(4-chloro-2-fluorophenyl)sulfonyl]amino}-6-methyl-3,4′-bipyridin-2′-yl)-2,2-difluorocyclopropanecarboxamide] |
| > 99 |  | COc1ncc(-c2ccnc(NC(C)=O)c2)c(C)c1S(=O)(=O)NC(C)(C)C [Compound I-442, N-[5-(tert-butylsulfamoyl)-6-methoxy-4-methyl-3,4′-bipyridin-2′-yl]acetamide] |
| > 99 |  | CC(=O)Nc1cc(-c2cnc(Cl)c(NS(=O)(=O)c3ccc(Br)cc3F)c2C)ccn1 [Compound I-444, N-(5-{[(4-bromo-2-fluorophenyl)sulfonyl]amino}-6-chloro-4-methyl-3,4′-bipyridin-2′-yl)acetamide] |
|  | >99 | CC(=O)Nc1cc(-c2cnc(C)c(NS(=O)(=O)N3CC4CCC3C4)c2)ccn1 (stereo not drawn) [Compound I-445, N-{5-[(2-azabicyclo[2.2.1]hept-2-ylsulfonyl)amino]-6-methyl-3,4′-bipyridin-2′-yl}acetamide] |
| > 99 |  | Cc1nccc(Nc2cc(-c3cnc(C)c(OC(C)C)c3)ccn2)n1 [Compound I-446, 5-isopropoxy-6-methyl-N-(2-methylpyrimidin-4-yl)-3,4′-bipyridin-2′-amine] |
| 87 |  | CC(=O)Nc1cc(-c2cnc(Cl)c(N3CCCNS3(=O)=O)c2)ccn1 [Compound I-448, N-[6-chloro-5-(1,1-dioxido-1,2,6-thiadiazinan-2-yl)-3,4′-bipyridin-2′-yl]acetamide] |
| 94 |  | CNc1ncc(-c2ccnc(NC(C)=O)c2)cc1C(=O)N(C)C12CC(C1)C2 [Compound I-449, 2′-acetamido-N-(bicyclo[1.1.1]pent-1-yl)-N-methyl-6-(methylamino)-3,4′-bipyridine-5-carboxamide] |
| 95 |  | Cc1nccc(Nc2cc(-c3cnc(Cl)c(C(=O)N4CCC4)c3C)ccn2)n1 [Compound I-457, azetidin-1-yl{6-chloro-4-methyl-2′-[(2-methylpyrimidin-4-yl)amino]-3,4′-bipyridin-5-yl}methanone] |
| 97 |  | CC(=O)Nc1cc(-c2cnc(C)c(NS(=O)(=O)c3cc(Cl)sc3Cl)c2)ccn1 [Compound I-465, N-(5-{[(2,5-dichloro-3-thienyl)sulfonyl]amino}-6-methyl-3,4′-bipyridin-2′-yl)acetamide] |
| 96 |  | CC(=O)Nc1cc(-c2cncc(Nc3ncco3)c2)ccn1 [Compound I-472, N-[5-(1,3-oxazol-2-ylamino)-3,4′-bipyridin-2′-yl]acetamide] |
| 89 |  | CC(=O)Nc1cc(-c2cncc(S(=O)(=O)N3CCC3)c2)ccn1 [Compound I-474, N-[5-(azetidin-1-ylsulfonyl)-3,4′-bipyridin-2′-yl]acetamide] |
| > 99 |  | Cc1nccc(Nc2cc(-c3cnc(C)c(Oc4ccccc4)c3)ccn2)n1 [Compound I-475, 6-methyl-N-(2-methylpyrimidin-4-yl)-5-phenoxy-3,4′-bipyridin-2′-amine] |

Further lines, the compound ahead of its results:

| Compound | inhibition at 1.11 µM [%] | Percent Inhibition [%] |
| --- | --- | --- |
| CNc1ncc(-c2ccnc(NC(C)=O)c2)c(C)c1S(=O)(=O)NC(C)(C)C [Compound I-436, N-[5-(tert-butylsulfamoyl)-4-methyl-6-(methylamino)-3,4′-bipyridin-2′-yl]acetamide] | 89 |  |
| CC(=O)Nc1cc(-c2cnc(Cl)c(S(=O)(=O)NC3CCC3)c2)ccn1 [Compound I-438, N-[6-chloro-5-(cyclobutylsulfamoyl)-3,4′-bipyridin-2′-yl]acetamide] | > 99 |  |
| Cc1nccc(Nc2cc(-c3cncc(OC4CCc5c(F)cccc54)c3)ccn2)n1 (stereo not drawn) [Compound I-440, 5-[(4-fluoro-2,3-dihydro-1H-inden-1-yl)oxy]-N-(2-methylpyrimidin-4-yl)-3,4′-bipyridin-2′-amine] | 83 |  |
| CC(=O)Nc1cc(-c2cncc(S(=O)(=O)NC(C)(C)C)c2)ccn1 [Compound I-443, N-[5-(tert-butylsulfamoyl)-3,4′-bipyridin-2′-yl]acetamide] | > 99 |  |
| CC(=O)Nc1cc(-c2cnc(C)c(NS(=O)(=O)N3CCOCC3)c2)ccn1 [Compound I-447, N-{6-methyl-5-[(morpholin-4-ylsulfonyl)amino]-3,4′-bipyridin-2′-yl}acetamide] | 98 |  |
| CC(=O)Nc1cc(-c2ccnc(Nc3ccnc(C)n3)c2)cn2nccc12 [Compound I-450, N-(6-{2-[(2-methylpyrimidin-4-34)amino]pyridin-4-yl}pyrazolo[1,5-a]pyridin-4-yl)acetamide] | 87 |  |
| CC(=O)Nc1cc(-c2cncc(N3CCCN(C)S3(=O)=O)c2)ccn1 [Compound I-452, N-[5-(6-methyl-1,1-dioxido-1,2,6-thiadiazinan-2-yl)-3,4′-bipyridin-2′-yl]acetamide] | > 99 |  |
| Cc1nccc(Nc2cc(-c3c[n+]([O-])c(Cl)c(NS(=O)(=O)c4ccc(F)cc4F)c3C)ccn2)n1 [Compound I-454, N-(2-chloro-4-methyl-5-{2-[(2-methylpyrimidin-4-yl)amino]pyridin-4-yl}-1-oxidopyridin-3-yl)-2,4-difluorobenzenesulfonamide] | > 99 |  |
| CNS(=O)(=O)Nc1cc(-c2ccnc(NC(C)=O)c2)cnc1C [Compound I-455, N-{6-methyl-5-[(methylsulfamoyl)amino]-3,4′-bipyridin-2′-yl}acetamide] | > 99 |  |
| CCOC(=O)Nc1cc(-c2cnc(C)c(NS(=O)(=O)c3ccc(Cl)cc3F)c2)ccn1 [Compound I-456, ethyl (5-{[(4-chloro-2-fluorophenyl)sulfonyl]amino}-6-methyl-3,4′-bipyridin-2′-yl)carbamate] | > 99 |  |
| CC(=O)Nc1cc(-c2cncc(N(C)S(=O)(=O)N(C)C)c2)ccn1 [Compound I-458, N-{5-[(dimethylsulfamoyl)(methyl)amino]-3,4′-bipyridin-2′-yl}acetamide] | > 99 |  |
| CC(=O)Nc1cc(-c2cncc(S(=O)(=O)Nc3ccccc3)c2)ccn1 [Compound I-459, N-[5-(phenylsulfamoyl)-3,4′-bipyridin-2′-yl]acetamide] | 96 |  |
| CC(=O)Nc1cc(-c2cnc(C)c(N3CCCNC3=O)c2)ccn1 [Compound I-460, N-[6-methyl-5-(2-oxotetrahydropyrimidin-1 (2H)-yl)-3,4′-bipyridin-2′-yl]acetamide] | 60 |  |
| CC(=O)Nc1cc(-c2cncc(S(=O)(=O)NC(C)(C)C)c2C)ccn1 [Compound I-462, N-(5-(N-(tert-butyl)sulfamoyl)-4-methyl-[3,4′-bipyridin]-2′-yl)acetamide] | 98 |  |
| CC(=O)Nc1cc(-c2cnc(C)c(NS(=O)(=O)c3c(Cl)cccc3Cl)c2)ccn1 [Compound I-463, N-(5-{[(2,6-dichlorophenyl)sulfonyl]amino}-6-methyl-3,4′-bipyridin-2′-yl)acetamide] | > 99 |  |
| CC(=O)Nc1cc(-c2cncc(S(=O)(=O)Nc3ccc(F)cc3F)c2)ccn1 [Compound I-464, N-{5-[(2,4-difluorophenyl)sulfamoyl]-3,4′-bipyridin-2′-yl}acetamide] | > 99 |  |
| Cc1c(-c2ccnc(Nc3ccnc(C4CC4)n3)c2)cnc(Cl)c1C(=O)N1CC(C)(C)C1 [Compound I-466, {6-chloro-2′-[(2-cyclopropylpyrimidin-4-yl)amino]-4-methyl-3,4′-bipyridin-5-yl}(3,3-dimethylazetidin-1-yl)methanone] | 92 |  |
| CC(=O)Nc1cc(-c2cnc(Cl)c(N3CCCN(C)S3(=O)=O)c2)ccn1 [Compound I-467, N-[6-chloro-5-(6-methyl-1,1-dioxido-1,2,6-thiadiazinan-2-yl)-3,4′-bipyridin-2′-yl]acetamide] | > 99 |  |
| CC(=O)Nc1cc(-c2cncc(S(=O)(=O)NC34CC5CC(CC(C5)C3)C4)c2)ccn1 [Compound I-468, N-[5-(adamantan-1-ylsulfamoyl)-3,4′-bipyridin-2′-yl]acetamide] | > 99 |  |
| CCc1c(-c2ccnc(NC(C)=O)c2)cnc(Cl)c1NS(=O)(=O)c1ccc(F)cc1F [Compound I-469, N-(6-chloro-5-{[(2,4-difluorophenyl)sulfonyl]amino}-4-ethyl-3,4′-bipyridin-2′-yl)acetamide] | > 99 |  |
| COc1ncc(-c2ccnc(NC(C)=O)c2)cc1S(=O)(=O)NC12CC(C1)C2 [Compound I-470, N-[5-(bicyclo[1.1.1]pent-1-ylsulfamoyl)-6-methoxy-3,4′-bipyridin-2′-yl]acetamide] | > 99 |  |
| Cc1nccc(Nc2cc(-c3cnc(C)c(OC4CCCC4)c3)ccn2)n1 [Compound I-471, 5-(cyclopentyloxy)-6-methyl-N-(2-methylpyrimidin-4-yl)-3,4′-bipyridin-2′-amine] | 98 |  |
| CC(=O)Nc1cc(-c2cnc(Cl)c(N3CCCNS3(=O)=O)c2C)ccn1 [Compound I-473, N-[6-chloro-5-(1,1-dioxido-1,2,6-thiadiazinan-2-yl)-4-methyl-3,4′-bipyridin-2′-yl]acetamide] | 87 |  |
| CC(=O)Nc1cc(-c2cc(NS(=O)(=O)N(C)C)c3ccnn3c2)ccn1 [Compound I-476, N-(4-{4-[(dimethylsulfamoyl)amino]pyrazolo[1,5-a]pyridin-6-yl}pyridin-2-yl)acetamide] | 87 |  |
